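Cultured in 96-well plates, cells were exposed to test compound for 48 hours across five concentrations. At the GI50, growth is halved.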 The source made the active and inactive calls. Cut-off read from the data, not from the text of the source: active = GI50 up to about 1.1 µM and inactive = higher.
Experiments:
Assay in all cases: DTP human tumour cell line panel, 48 h
[1] = system: RPMI-8226
[2] = system: OVCAR-8
[3] = system: MDA-N
[4] = system: UACC-62
[5] = system: SR
[6] = system: COLO 205
[7] = system: HCT-15
[8] = system: IGROV-1
[9] = system: LOX IMVI
[10] = system: A498
[11] = system: K562
[12] = system: SF-295
[13] = system: SW-620
[14] = system: BT-549
[15] = system: UO-31
[16] = system: SK-OV-3
[17] = system: RXF 393
[18] = system: TK-10
[19] = system: NCI-H23
[20] = system: SK-MEL-28

Compound | GI50 [1] | GI50 [2] | GI50 [3] | GI50 [4] | GI50 [5] | GI50 [6] | GI50 [7] [µM] | GI50 [8] | GI50 [9] | GI50 [10] | GI50 [11] | GI50 [12] | GI50 [13] | GI50 [14] | GI50 [15] | GI50 [16] | GI50 [17] | GI50 [18] | GI50 [19] | GI50 [20]
COC(=O)C1(Cc2ccccc2)Cc2ccc3c(c2C1=O)CCC3 (stereo not given) | 25.4 µM (inactive) | 59.6 µM (inactive) | 26.2 µM (inactive) | > 36.7 µM (inactive) | 28.7 µM (inactive) | 27.8 µM (inactive) | 35 | > 72.9 µM (inactive) | 39.3 µM (inactive) | 35.4 µM (inactive) | 30.6 µM (inactive) | > 46.2 µM (inactive) | > 60.4 µM (inactive) | 2.24 µM (inactive) | 18 µM (inactive) | > 80.4 µM (inactive) | 20.4 µM (inactive) | > 47.5 µM (inactive) | 32.2 µM (inactive) | > 70.6 µM (inactive)
Cc1ccc(C(=O)CCl)o1 | 2.33 µM (inactive) | > 4.5 µM (inactive) | > 7.08 µM (inactive) | > 7.91 µM (inactive) | 3.07 µM (inactive) | 3.01 µM (inactive) | 4.93 | > 9.68 µM (inactive) | 2.98 µM (inactive) | > 10 µM (inactive) | 3.93 µM (inactive) | > 10 µM (inactive) | 2.3 µM (inactive) | 5.3 µM (inactive) | > 4.67 µM (inactive) | > 10 µM (inactive) | > 9.31 µM (inactive) | 6.9 µM (inactive) | 5.37 µM (inactive) | > 10 µM (inactive)
O=C(Cc1ccccc1)NCCc1ccc(O)c(O)c1 | 15.6 µM (inactive) | > 100 µM (inactive) | 17.4 µM (inactive) | 48.9 µM (inactive) | 23.3 µM (inactive) | > 100 µM (inactive) | 54.1 | 77.1 µM (inactive) | 44.7 µM (inactive) | > 100 µM (inactive) | 17.9 µM (inactive) | > 100 µM (inactive) | > 100 µM (inactive) | 82.8 µM (inactive) | 41.2 µM (inactive) | > 100 µM (inactive) | > 100 µM (inactive) | > 100 µM (inactive) | 52.6 µM (inactive) | > 100 µM (inactive)
O=C1Nc2ccccc2SC1=C(C(=O)c1ccccc1)C(=O)c1ccccc1 | 28.8 µM (inactive) | 52.4 µM (inactive) | 19.7 µM (inactive) | 20.7 µM (inactive) | 17.7 µM (inactive) | 29.2 µM (inactive) | 37.5 | 42.3 µM (inactive) | 31.3 µM (inactive) | 32.4 µM (inactive) | 4.06 µM (inactive) | 17.1 µM (inactive) | 34.6 µM (inactive) | 30.5 µM (inactive) | 53.3 µM (inactive) | 16 µM (inactive) | 55 µM (inactive) | 63.4 µM (inactive) | 29.7 µM (inactive) | 55.6 µM (inactive)
O=C1c2c(ccc3c2CCCC3)CC1Cc1ccc2c(c1)CCCC2 (stereo not given) | 21.6 µM (inactive) | 88.3 µM (inactive) | 39 µM (inactive) | 48 µM (inactive) | 9.08 µM (inactive) | 30.8 µM (inactive) | 36.1 | > 100 µM (inactive) | 63.8 µM (inactive) | > 100 µM (inactive) | 36.1 µM (inactive) | 33.8 µM (inactive) | 61.7 µM (inactive) | > 100 µM (inactive) | > 100 µM (inactive) | > 100 µM (inactive) | 14.3 µM (inactive) | > 100 µM (inactive) | 39.5 µM (inactive) | > 100 µM (inactive)
O=C1NC(c2ccccc2)C1N(Cc1ccccc1)Cc1ccccc1 (stereo not given) | > 100 µM (inactive) | > 100 µM (inactive) | > 100 µM (inactive) | 93.1 µM (inactive) | > 100 µM (inactive) | > 100 µM (inactive) | > 100 | > 100 µM (inactive) | > 100 µM (inactive) | > 100 µM (inactive) | > 100 µM (inactive) | > 100 µM (inactive) | > 100 µM (inactive) | > 100 µM (inactive) | > 100 µM (inactive) | > 100 µM (inactive) | > 100 µM (inactive) | > 100 µM (inactive) | > 100 µM (inactive) | > 100 µM (inactive)
C[C@]12CC[C@H]3[C@@H](CCC4=C[C@@H](OC5OCC(OC6OC(CO)C(O)C(O)C6O)C(O)C5O)CC[C@@]43C=O)[C@@]1(O)CCC2C1=CC(=O)OC1 (stereo not given in full) | 0.628 µM (active) | 0.931 µM (active) | 1.01 µM (active) | 1.81 µM (inactive) | 0.221 µM (active) | 1.35 µM (inactive) | 0.504 | 0.351 µM (active) | 0.63 µM (active) | 0.755 µM (active) | 0.397 µM (active) | 0.638 µM (active) | 0.746 µM (active) | 0.211 µM (active) | 0.561 µM (active) | 1.13 µM (inactive) | 0.23 µM (active) | 0.681 µM (active) | 0.195 µM (active) | 2.57 µM (inactive)
O=[N+]([O-])c1ccccc1S(=O)(=O)c1ccccc1[N+](=O)[O-] | > 92.7 µM (inactive) | > 56.2 µM (inactive) | > 100 µM (inactive) | > 100 µM (inactive) | > 100 µM (inactive) | > 100 µM (inactive) | > 100 | > 84.7 µM (inactive) | > 100 µM (inactive) | > 87.7 µM (inactive) | > 100 µM (inactive) | 36.9 µM (inactive) | > 56.2 µM (inactive) | 65.9 µM (inactive) | > 82.2 µM (inactive) | > 90.8 µM (inactive) | 39.5 µM (inactive) | 53.7 µM (inactive) | 74.5 µM (inactive) | > 100 µM (inactive)
COC(=O)CCC12CCC(O1)c1ccccc12 (stereo not given) | > 100 µM (inactive) | > 100 µM (inactive) | > 100 µM (inactive) | > 100 µM (inactive) | > 100 µM (inactive) | > 100 µM (inactive) | > 100 | > 100 µM (inactive) | > 100 µM (inactive) | > 100 µM (inactive) | > 100 µM (inactive) | > 100 µM (inactive) | > 100 µM (inactive) | > 100 µM (inactive) | > 100 µM (inactive) | > 100 µM (inactive) | > 100 µM (inactive) | > 100 µM (inactive) | > 100 µM (inactive) | > 100 µM (inactive)
C[N+]1(Cc2ccc(Cl)c(Cl)c2)CCCC1C1CCCN(Cc2ccc(Cl)c(Cl)c2)C1 (stereo not given) | > 100 µM (inactive) | > 100 µM (inactive) | > 100 µM (inactive) | > 100 µM (inactive) | > 100 µM (inactive) | > 100 µM (inactive) | > 100 | 70 µM (inactive) | > 100 µM (inactive) | > 100 µM (inactive) | 52.4 µM (inactive) | > 100 µM (inactive) | > 100 µM (inactive) | > 100 µM (inactive) | > 100 µM (inactive) | > 100 µM (inactive) | > 100 µM (inactive) | > 100 µM (inactive) | > 100 µM (inactive) | > 100 µM (inactive)

— ChEMBL document CHEMBL1201862, “PubChem BioAssay data set” (2004)
